Results taken from article PMC3479967 (Evidence-based Complementary and Alternative Medicine : eCAM, 2012).

Experiments:
UGT1A10 = target: T1, UGT1A10 (Homo sapiens, UniProt Q9HAW8); test: Inhibition of recombinant UGT1A10 activity (4-MU glucuronidation)
T1 sequence (Q9HAW8 26-530): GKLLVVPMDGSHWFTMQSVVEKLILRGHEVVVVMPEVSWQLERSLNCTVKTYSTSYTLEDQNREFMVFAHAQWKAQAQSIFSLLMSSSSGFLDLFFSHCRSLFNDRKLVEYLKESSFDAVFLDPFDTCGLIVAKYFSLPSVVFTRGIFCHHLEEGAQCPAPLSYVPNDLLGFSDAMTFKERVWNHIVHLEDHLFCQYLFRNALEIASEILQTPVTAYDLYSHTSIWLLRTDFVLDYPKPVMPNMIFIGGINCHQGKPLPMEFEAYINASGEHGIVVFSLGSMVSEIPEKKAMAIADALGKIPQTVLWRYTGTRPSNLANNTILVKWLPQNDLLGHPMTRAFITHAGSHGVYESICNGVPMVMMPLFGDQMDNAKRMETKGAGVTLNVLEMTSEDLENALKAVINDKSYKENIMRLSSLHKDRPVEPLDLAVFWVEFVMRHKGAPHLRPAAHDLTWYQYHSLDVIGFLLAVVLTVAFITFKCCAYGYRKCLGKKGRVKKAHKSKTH
Method: (§1) A panel of recombinant human UGT supersomes (UGT1A1, UGT1A3, UGT1A4, UGT1A6, UGT1A7, UGT1A8, UGT1A9, UGT1A10, UGT2B4, UGT2B7, UGT2B15, and UGT2B17) expressed in baculovirus-infected insect cells were purchased from BD Gentest Corp. (Woburn, MA, USA).
(§2) 4-MU, a nonselective substrate of UGTs, was used as probe substrate for all UGTs except UGT1A4. Incubations with each individual enzyme were conducted using conditions previously described. There was a 5 min preincubation step at 37°C before the reaction was started by addition of UDPGA. The incubation mixtures were then centrifuged at 20,500 ×g for 15 min to obtain the supernatant. Aliquots (20 μL) were then analyzed by HPLC. The HPLC system (SHIMADZU, Kyoto, Japan) consisted of an SCL-10A system controller, two LC-10AT pumps, a SIL-10A auto injector, and a SPD-10AVP UV detector. Chromatographic separation was achieved using a Kromasil ODS column (4.6 × 150 mm I.D., 5 μm particle size) at a flow rate of 1 mL/min and UV detection at 316 nm. The mobile phase consisted of 10 mM KH2PO4, pH 2.7 (A) and acetonitrile (B). The following gradient was applied at a flow rate of 1 mL/min: 0–4 min 80% A and 20% B, 4.1–8 min 50% A and 50% B, 8.1–12 min, 30% A and 70% B. All experiments were performed in two independent experiments in duplicate.
A typical incubation mixture contained recombinant human UGTs, 5 mM MgCl2, 5 mM UDPGA, 50 μg/mg protein alamethicin, 50 mM Tris-HCl buffer (pH 7.4), and various probe substrates of UGTs in the absence or presence of different concentrations of inhibitors. […] The final concentration of DMSO in the incubation system was 1% (v/v). […]
(§3) Inhibition data from experiments were graphically represented by Dixon plots. K i values were calculated by nonlinear regression using the equations for competitive inhibition (1), noncompetitive inhibition (2), or mixed inhibition (3), [22] […] The type of inhibition was determined from the enzyme inhibition models. Goodness of fit to kinetic and inhibition models was assessed from the F statistic, r ^2 values, parameter standard error estimates, and 95% confidence intervals. […]

UGT2B7 = target: T2, UGT2B7 (Homo sapiens, UniProt P16662); test: Inhibition of recombinant UGT2B7 activity (4-MU glucuronidation)
T2 sequence (P16662 24-529): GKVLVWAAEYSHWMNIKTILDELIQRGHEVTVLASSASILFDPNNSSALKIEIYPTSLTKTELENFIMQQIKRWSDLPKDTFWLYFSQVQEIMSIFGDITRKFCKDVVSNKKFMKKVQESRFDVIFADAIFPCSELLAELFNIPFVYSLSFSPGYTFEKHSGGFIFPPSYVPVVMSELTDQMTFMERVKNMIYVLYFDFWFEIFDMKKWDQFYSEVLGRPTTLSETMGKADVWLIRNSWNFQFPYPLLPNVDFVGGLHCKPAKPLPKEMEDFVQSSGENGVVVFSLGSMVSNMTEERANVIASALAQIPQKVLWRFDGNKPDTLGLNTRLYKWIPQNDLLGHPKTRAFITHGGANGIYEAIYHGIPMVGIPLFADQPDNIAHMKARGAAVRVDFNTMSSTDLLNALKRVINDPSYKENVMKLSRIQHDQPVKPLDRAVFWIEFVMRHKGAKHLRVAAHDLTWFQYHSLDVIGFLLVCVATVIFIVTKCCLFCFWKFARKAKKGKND
Method: as §1, §2
A typical incubation mixture contained recombinant human UGTs, 5 mM MgCl2, 5 mM UDPGA, 50 μg/mg protein alamethicin, 50 mM Tris-HCl buffer (pH 7.4), and various probe substrates of UGTs in the absence or presence of different concentrations of inhibitors. […] The final concentration of DMSO in the incubation system was 1% (v/v). […] Known UGT inhibitors were used as positive controls: diclofenac for UGT1A1, UGT1A6, UGT1A7, and UGT1A9; androsterone for UGT1A3, UGT2B7, and UGT2B15, phenylbutazone for UGT1A8 and UGT1A10, and hecogenin for UGT1A4, respectively. There is no positive control reported available for UGT2B4 and UGT2B17. The negative controls are the incubation without UDPGA. […] The final concentration of DMSO in the incubation system was 1% (v/v). […] There was a 5 min preincubation step at 37°C before the reaction was started by the addition of UDPGA. Incubation times were 120 min for UGT1A1, UGT1A10, UGT2B4, UGT2B15, and UGT2B17, 75 min for UGT1A3, and 30 min for UGT1A4, UGT1A6, UGT1A7, UGT1A8, and UGT1A9. The reactions were quenched by adding 100 μL acetonitrile and internal standard. The incubation mixtures were then centrifuged at 20,500 ×g for 15 min to obtain the supernatant. An aliquot of the supernatant was used for HPLC analysis as described above. All experiments were performed in two independent experiments in duplicate.
as §3

Row | SMILES | IC50 (UGT1A10) [µM] | IC50 (UGT2B7) [µM]
1 | COc1ccc(-c2oc3c(CC=C(C)C)c(O[C@@H]4O[C@H](CO)[C@@H](O)[C@H](O)[C@H]4O)cc(O)c3c(=O)c2O[C@@H]2O[C@@H](C)[C@H](O)[C@@H](O)[C@H]2O)cc1 [Icariin] | > 100 | > 100
2 | COc1ccc(-c2oc3c(CC=C(C)C)c(O)cc(O)c3c(=O)c2O)cc1 [Icaritin] | > 100 | > 100
3 | COc1ccc(-c2oc3c(CC=C(C)C)c(O[C@@H]4O[C@H](CO)[C@@H](O)[C@H](O)[C@H]4O)cc(O)c3c(=O)c2O)cc1 [Icariside I] | > 100 | > 100
